Measured values as given in patent US6562841B1, “Methods and compositions for repelling arthropods” (The United States of America as represented by the …, priority 2000, dated 2003).
Read-outs that look alike come from different tables or passages of the source.

How the values were obtained:
Aedes aegypti (Linnaeus) = assay: Repellent bioassay on human skin, K & D modules, biting frequency of Aedes aegypti; format: in vivo; settings: for repellent activity, comparison in words: pair-wise comparison alpha=0.05
[1] = system: many species of blood-sucking arthropods; settings: field and laboratory studies, literature, cited from earlier work
Phlebotomus papatasi = assay: Repellent bioassay on human skin, K & D modules, Phlebotomus papatasi; format: in vivo
Anopheles stephensi = assay: Repellent bioassay on human skin, K & D modules, Anopheles stephensi; format: in vivo
Aedes albopictus = assay: Repellent bioassay on human skin, K & D modules, Aedes albopictus; format: in vivo

## CC1CCCCN1C(=O)C1CC=CCC1 (racemic) [compound 220, 1-(3-cyclohexen-1-ylcarbonyl)-2-methylpiperidine, reference compound]
Aedes aegypti (Linnaeus); Ae. aegypti females on treated human skin, 4.95 μg/cm^2 skin, 2 min exposure
  proportion biting value: 0.45
Aedes aegypti (Linnaeus); Ae. aegypti, 4.95 μg/cm^2 skin
  repellent activity, comparison in words: not significantly different from one another
[1]
  effectiveness in reducing bites compared with deet: more or as effective as the commonly used arthropod repellent deet
[1]; listed as 220 racemate
  effectiveness in reducing bites compared with deet: more effective than deet

## C[C@H]1CCCCN1C(=O)[C@@H]1CC=CCC1 (single isomer, unassigned) [(1S,2′S)]
Phlebotomus papatasi
  repellent effectiveness, comparison in words: most effective in repelling bites
Aedes aegypti (Linnaeus); Ae. aegypti, 4.95 μg/cm^2 skin
  times more repellent than the other stereoisomers: 2.8-3.1 times
Aedes aegypti (Linnaeus); Ae. aegypti, equal dose
  times more effective in suppressing bites than the racemate: 2.5 times
Anopheles stephensi
  repellent effectiveness, comparison in words: most effective in repelling bites
Aedes albopictus
  times more effective in suppressing bites than the racemate: 4 times

## CC1CCCCN1C(=O)C1CC=CCC1 [(1R,2′R), 1-(3-cyclohexen-1-ylcarbonyl)-2-methylpiperidine]
Aedes aegypti (Linnaeus); Ae. aegypti, 4.95 μg/cm^2 skin, listed as (1R,2′R)-220
  repellent activity, comparison in words: significantly less effective as a repellent

## CC1CCCCN1C(=O)C1CC=CCC1 [(1S,2′R), 1-(3-cyclohexen-1-ylcarbonyl)-2-methylpiperidine]
Aedes aegypti (Linnaeus); Ae. aegypti, 4.95 μg/cm^2 skin
  repellent activity, comparison in words: not significantly different from one another

## CC1CCCCN1C(=O)C1CC=CCC1 [(1R,2′S), 1-(3-cyclohexen-1-ylcarbonyl)-2-methylpiperidine]
Aedes aegypti (Linnaeus); Ae. aegypti, 4.95 μg/cm^2 skin
  times more repellent than the other stereoisomers: 1.6-1.8 times
Aedes albopictus
  repellent effectiveness, comparison in words: more effective than the (1S,2′R) and (1R,2′R) stereoisomers
